Source: patent US5250679A, “Nonpeptidyl platelet aggregation inhibitors having specificity for the GPIIb III receptor” (Genentech, Inc., priority 1992, dated 1993)
Counter-ions that a name gives are not always drawn. Like-named read-outs stand apart in the source and are kept apart here.

What was measured:
GP IIb IIIa = target: T1, GP IIb IIIa (Homo sapiens, UniProt P05106+P08514); test: Fibrinogen-GP IIb IIIa Receptor ELISA Binding Assay (Fg/IIbIIIa)
T1 construct: from tissue; host or cells: outdated human platelets
Method: Briefly, microtiter plates are coated with fibrinogen (10 mg/ml) and then blocked with TACTS buffer containing 0.5% bovine serum albumin (BSA). […] After another wash a goat anti-mouse IgG conjugated to horseradish peroxidase is added. […] The reaction is stopped with 1N sulfuric acid and the absorbance at 492 nm is recorded. […] Outdated human platelets are washed 3 times with 10 mM tris-HCl, 150 mM NaCl (TBS), 1 mM EDTA, pH 7.5, and centrifuged at 2000×g to pellet cells. […] The supernatant fraction is collected and the supernatant is loaded onto a concanavalin-A column, previously equilibrated in TBS, 1 mM Ca2 Cl2, 0.1% Triton, 0.05% NaN3 and eluted with 0.2M a-methylmannoside. Fractions are pooled and loaded onto a heparin-agarose column. The flowthrough is collected and concentrated on an Amicon YM 30 filter to a volume of approximately 5-10 ml. The concentrate is then applied to an S-300 column (500 ml) and 6 ml fractions are collected. The GP IIb IIIa containing fractions are collected, pooled, and stored at -80° C. […] The precipitate is spun down in appropriate size bottles at 2000×g. The supernatant is decanted and the precipitate resuspended in 150 mM NaCl (approximately 50% of the original volume). […] The suspension is spun down and the precipitate is resuspended in Tris-saline in a minimal volume (approximately 5% of the original volume). Any remaining insoluble material is spun down at 2000 rpm in a Sorval type centrifuge and the fibrinogen supernatant is decanted and dialyzed overnight at 4° C. against Tris-saline. Characterization of the fibrinogen is by the Bradford protein assay, SDS-PAGE, and/or Western blotting using well known standard procedures. Briefly, 96 well plates are coated (Type Nunc 1 MaxisorpTM) with 10 mg/ml purified fibrinogen ([…]), and allowed to stand overnight at 4° C. […] The plates are again washed three times with PBS/Tween and then […] of sample in TNCNT is added. The mixture is incubated for 15 minutes at room temperature on a plate shaker. […] Fifty ml of this diluted GP IIb IIIa is then added to each well and incubated on a plate shaker at room temperature. After one hour, the plates are washed four times with PBS/Tween and 100 ml of a polyclonal or monoclonal antibody specific for GP IIIa such as AP3 (1 mg/ml) (See e.g. […] After a one hour incubation at room temperature on a plate shaker, the samples are washed 4 times with PBS/Tween. […] The color develops within about 3 to 20 minutes and the reaction is stopped with 100 ml 1M H2 SO4. The optical density at 492 nm vs 405 nm is recorded and IC50 values are determined.

[1] = test system: human platelet rich plasma (PRP); test: In Vitro Human Platelet Aggregation Assay (PA); assay type: cell-based; settings: Homo sapiens, Platelet
Method: In addition to the GPIIb IIIa ELISA assay, platelet aggregation assays may be performed in human platelet rich plasma (PRP). […] The blood is centrifuged at 160×g for 10 min at 22° C. and then allowed to stand for 5 min after which the PRP is decanted. Platelet poor plasma (PPP) is isolated from the remaining blood after centrifugation at 2000×g for 25 min. The platelet count of the PRP is adjusted to ca. 300,000 per microliter with PPP.
A 225 mL aliquot of PRP plus 25 mL of either a dilution of the test sample or a control (PBS) is incubated for 5 min in a Chrono-log Whole Blood Aggregometer at 25° C. An aggregating agent (collagen, 1 mg/ml; U46619, 100 ng/ml; or ADP, 8 mM) is added and the platelet aggregation recorded.
Platelet aggregation assays are performed in human platelet rich plasma (PRP). […] The blood is centrifuged at 160×g for 10 minutes at 22° C. and allowed to stand for 5 minutes after which the PRP is decanted. Platelet poor plasma (PPP) is isolated from the remaining blood after centrifugation at 2000×g for 25 minutes. The platelet count of the PRP is diluted to about 300,000 platelets per microliter with PPP.
A 225 ml aliquot of PRP plus 25 ml of either a dilution of the test inhibitor sample or a control (PBS) is incubated for 5 minutes in a Chrono-log Whole Blood Aggregometer at 25° C. An aggregating agent (collagen, 1 mg/ml; U46619, 100 ng/ml; or ADP, 17 mM) is added and the transmission is recorded.

[2] = Example 30, G # table, read-out: IC50 (μM) Fg/IIbIIIa
[3] = Examples 29 and 30, Cmpd # tables, read-out: IC50 (μM) Fg/IIbIIIa
[4] = citrate, read-out: PA IC50 (μM) (citrate)
[5] = Example 29, Cmpd # 1-105, read-out: IC50 Fg/IIbI

T1 sequence (P08514 32-887 limits assumed): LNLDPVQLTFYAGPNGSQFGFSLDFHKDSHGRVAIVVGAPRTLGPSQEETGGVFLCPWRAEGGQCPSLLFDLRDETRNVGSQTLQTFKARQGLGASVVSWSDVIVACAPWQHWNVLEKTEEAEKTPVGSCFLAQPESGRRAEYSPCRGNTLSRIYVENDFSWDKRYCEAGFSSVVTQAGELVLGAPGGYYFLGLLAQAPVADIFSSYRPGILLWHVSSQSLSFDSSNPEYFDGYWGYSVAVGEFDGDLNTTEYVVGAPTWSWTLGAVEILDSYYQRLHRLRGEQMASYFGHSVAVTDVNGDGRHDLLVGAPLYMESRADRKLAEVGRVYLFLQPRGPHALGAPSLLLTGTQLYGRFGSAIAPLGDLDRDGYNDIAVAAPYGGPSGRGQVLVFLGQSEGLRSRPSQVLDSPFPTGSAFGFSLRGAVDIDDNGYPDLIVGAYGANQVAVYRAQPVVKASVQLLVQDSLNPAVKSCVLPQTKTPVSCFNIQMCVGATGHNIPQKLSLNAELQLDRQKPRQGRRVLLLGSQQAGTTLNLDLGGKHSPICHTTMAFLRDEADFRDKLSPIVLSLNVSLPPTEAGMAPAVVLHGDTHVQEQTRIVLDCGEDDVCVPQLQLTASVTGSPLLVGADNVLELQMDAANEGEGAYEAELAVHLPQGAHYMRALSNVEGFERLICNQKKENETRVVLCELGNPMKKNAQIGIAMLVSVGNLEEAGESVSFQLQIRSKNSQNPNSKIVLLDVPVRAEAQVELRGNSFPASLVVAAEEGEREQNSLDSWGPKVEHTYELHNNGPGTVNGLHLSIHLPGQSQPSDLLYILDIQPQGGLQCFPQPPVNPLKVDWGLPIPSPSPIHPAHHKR
T1 sequence (P08514 891-1039 partner limits assumed): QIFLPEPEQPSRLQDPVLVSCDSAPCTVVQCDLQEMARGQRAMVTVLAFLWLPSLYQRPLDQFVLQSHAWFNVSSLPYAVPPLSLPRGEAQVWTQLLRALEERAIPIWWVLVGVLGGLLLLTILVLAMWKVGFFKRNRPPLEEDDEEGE
T1 sequence (P05106 27-788): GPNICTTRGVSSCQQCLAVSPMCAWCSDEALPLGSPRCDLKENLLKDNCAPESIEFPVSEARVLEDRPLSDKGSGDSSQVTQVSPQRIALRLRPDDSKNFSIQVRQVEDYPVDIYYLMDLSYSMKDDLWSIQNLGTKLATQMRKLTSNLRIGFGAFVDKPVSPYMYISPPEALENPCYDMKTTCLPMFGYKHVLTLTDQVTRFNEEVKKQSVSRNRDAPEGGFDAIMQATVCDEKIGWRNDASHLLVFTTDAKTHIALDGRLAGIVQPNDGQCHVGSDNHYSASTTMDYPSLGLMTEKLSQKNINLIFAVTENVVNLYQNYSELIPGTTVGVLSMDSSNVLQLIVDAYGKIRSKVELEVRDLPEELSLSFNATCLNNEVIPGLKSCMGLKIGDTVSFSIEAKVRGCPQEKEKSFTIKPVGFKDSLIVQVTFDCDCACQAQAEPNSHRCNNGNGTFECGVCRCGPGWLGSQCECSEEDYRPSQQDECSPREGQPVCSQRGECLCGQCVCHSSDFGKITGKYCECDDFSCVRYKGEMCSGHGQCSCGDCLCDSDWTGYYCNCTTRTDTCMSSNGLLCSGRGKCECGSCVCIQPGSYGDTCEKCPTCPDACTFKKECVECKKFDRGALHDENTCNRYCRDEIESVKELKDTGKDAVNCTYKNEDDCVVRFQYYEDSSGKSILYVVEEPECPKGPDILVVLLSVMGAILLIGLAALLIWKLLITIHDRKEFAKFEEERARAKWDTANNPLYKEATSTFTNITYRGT

| Compound | IC50 (GP IIb IIIa; [2]) [µM] | IC50 (GP IIb IIIa; [3]) [µM] | IC50 [1, 4] [µM] | IC50 (GP IIb IIIa; [5]) [µM] | IC50 ([1]; heparin, read-out: PA IC50 (μM) (heparin)) [µM] |
| --- | --- | --- | --- | --- | --- |
| NCCCCCCc1ccc2c(c1)C(=O)N(CCC(=O)O)CC(=O)N2Cc1cccc(N)c1 [Cmpd 122] | 0.01 | 0.012 | 0.49 | – | – |
| N=C(N)NCCCCCc1ccc2c(c1)C(=O)N(CCC(=O)O)CC(=O)N2Cc1ccc2ccccc2c1 [Cmpd 75, 1-(2-napthyl)methyl-4-(2-carboxyethyl)-7-(5-guanidinopentyl)-3,4-dihydro-1H-1,4-benzodiazepine-2,5-dione trifluoroacetate] | 0.011 | – | 6.88 | 0.011 | – |
| N=C(N)NCCCCCCc1ccc2c(c1)C(=O)N(CCC(=O)O)CC(=O)N2Cc1cccc(NC(=O)CCCNC(=N)N)c1 [Cmpd 113] | 0.01 | 0.01 | 0.87 | – | – |
| NCCCCCCc1ccc2c(c1)C(=O)N(CCC(=O)O)CC(=O)N2Cc1cccc(NC(=O)CCCCN)c1 [Cmpd 114] | 0.008 | 0.008 | 0.31 | – | – |
| NCCCCCCc1ccc2c(c1)C(=O)N(CCC(=O)O)CC(=O)N2Cc1cccc(NC(=O)CCCCCN)c1 [Cmpd 116] | 0.011 | 0.011 | 0.27 | – | – |
| N=C(N)NCCCCCc1ccc2c(c1)C(=O)N(CCC(=O)O)CC(=O)N2Cc1cccc2ccccc12 [Cmpd 77, 1-(1-napthyl)methyl-4-(2-carboxyethyl)-7-(5-guanidinopentyl)-3,4-dihydro-1H-1,4-benzodiazepine-2,5-dione trifluoroacetate] | 0.008 | – | 2.65 | 0.008 | – |
| NCCCCCCc1ccc2c(c1)C(=O)N(CCC(=O)O)CC(=O)N2Cc1cccc(NC(=O)CCCN)c1 [Cmpd 112, 1-[3-(N-(4-aminobuturyl))aminophenyl]methyl-4-(2-carboxyethyl)-7-(6-aminohexyl)-3,4-dihydro-1H-1,4-benzodiazapine-2,5-dione bistrifluoroacetate] | 0.008 | 0.008 | 0.4 | – | – |
| CCCCC(=O)Nc1cccc(CN2C(=O)CN(CCC(=O)O)C(=O)c3cc(CCCCCCN)ccc32)c1 [Cmpd 123] | 0.015 | 0.015 | 0.64 | – | – |
| CCCCC(=O)Nc1cccc(CN2C(=O)CN(CCC(=O)O)C(=O)c3cc(CCCCCCNC(=N)N)ccc32)c1 [Cmpd 124] | 0.012 | 0.012 | 2.76 | – | – |
| NCCCCCCc1ccc2c(c1)C(=O)N(CCC(=O)O)CC(=O)N2Cc1cccc2ccccc12 [Cmpd 82, 1-(1-napthyl)methyl-4-(2-carboxyethyl)-7-(6-aminohexyl)-3,4-dihydro-1H-1,4-benzodiazepine-2,5-dione trifluoroacetate] | 0.015 | – | 0.76 | 0.015 | – |
| NCCCCCCc1ccc2c(c1)C(=O)N(CCC(=O)O)CC(=O)N2Cc1ccc2ccccc2c1 [Cmpd 83, 1-(2-napthyl)methyl-4-(2-carboxyethyl)-7-(6-aminohexyl)-3,4-dihydro-1H-1,4-benzodiazepine-2,5-dione trifluoroacetate] | 0.017 | – | 3.19 | 0.017 | – |
| N=C(N)NCCCCCCc1ccc2c(c1)C(=O)N(CCC(=O)O)CC(=O)N2Cc1cccc(NC(=O)CCCCNC(=N)N)c1 [Cmpd 115] | 0.018 | 0.013 | 0.92 | – | – |
| N=C(N)NCCCCCCc1ccc2c(c1)C(=O)N(CCC(=O)O)CC(=O)N2Cc1cccc2ccccc12 [Cmpd 85, 1-(1-napthyl)methyl-4-(2-carboxyethyl)-7-(6-guanidinohexyl)-3,4-dihydro-1H-1,4-benzodiazepine-2,5-dione trifluoroacetate] | 0.014 | – | 6.2 | 0.014 | – |
| NCCCCCc1ccc2c(c1)C(=O)N(CCC(=O)O)CC(=O)N2Cc1ccc2ccccc2c1 [Cmpd 76, 1-(2-napthyl)methyl-4-(2-carboxyethyl)-7-(5-aminopentyl)-3,4-dihydro-1H-1,4-benzodiazepine-2,5-dione trifluoroacetate] | 0.077 | – | 28.9 | 0.077 | – |
| CC(CC(=O)O)N1CC(=O)N(C)c2ccc(C#CCCCNC(=N)N)cc2C1=O (stereo not drawn) [Cmpd 38, 1-methyl-4-(2-carboxy-1-methylethyl)-7-(5-guanidino-1-pentynyl)-3,4-dihydro-1H-1,4, benzodiazepine-2,5-dione trifluroacetate] | 0.018 | – | 1.19 | 0.018 | – |
| N=C(N)NCCCCCCc1ccc2c(c1)C(=O)N(CCC(=O)O)CC(=O)N2Cc1cccc(NC(=O)CCCCCNC(=N)N)c1 [Cmpd 117] | 0.013 | 0.013 | 0.64 | – | – |
| COc1ccc(CN2C(=O)CN(CCC(=O)O)C(=O)c3cc(CCCCCCN)ccc32)cc1 [Cmpd 81, 1-(p-methoxybenzyl)-4-(2-carboxyethyl)-7-(6-aminohexyl)-3,4-dihydro-1H-1,4-benzodiazepine-2,5-dione trifluoroacetate] | 0.023 | – | 0.98 | 0.023 | – |
| COc1ccc(CN2C(=O)CN(CCC(=O)O)C(=O)c3cc(CCCCCCNC(=N)N)ccc32)cc1 [Cmpd 84, 1-(p-methoxybenzyl)-4-(2-carboxyethyl)-7-(6-guanidinohexyl)-3,4-dihydro-1H-1,4-benzodiazepine-2,5-dione trifluoroacetate] | 0.024 | – | 10.4 | 0.024 | – |
| N=C(N)Nc1ccc(C(=O)Nc2cccc(CN3C(=O)CN(CCC(=O)O)C(=O)c4cc(CCCCCCN)ccc43)c2)cc1 [Cmpd 127, 1-(3-(4-guanidinobenzoyl)aminophenyl)methyl-4-(2-carboxyethyl)-7-(6-aminohexyl)-3,4-dihydro-1H-1,4-benzodiazapine-2,5-dione] | 0.008 | 0.008 | 0.35 | – | – |
| NCCCCCc1ccc2c(c1)C(=O)N(CCC(=O)O)CC(=O)N2Cc1cccc2ccccc12 [Cmpd 78, 1-(1-napthyl)methyl-4-(2-carboxyethyl)-7-(5-aminopentyl)-3,4-dihydro-1H-1,4-benzodiazepine-2,5-dione trifluoroacetate] | 0.066 | – | 6.53 | 0.066 | – |
| O=C(O)CCN1CC(=O)N(Cc2ccc(Cl)cc2)c2ccc(-c3ccc(N4CCNCC4)cc3)cc2C1=O [Cmpd 73, 1-(p-chlorobenzyl)-7-[4-(1-piperazine)phenyl]-4-(2-carboxyethyl)-3,4-dihydro-1H-1,4-benzodiazpine-2,4-dione trifluoroacetate] | 0.007 | – | 0.67 | 0.007 | 2.3 |
| NCCCC#Cc1ccc2c(c1)C(=O)N(CCC(=O)O)CC(=O)N2Cc1ccc(Cl)cc1 [Cmpd 58] | – | – | – | 0.062 | – |
| N=C(N)NCCCCC#Cc1ccc2c(c1)C(=O)N(CCC(=O)O)CC(=O)N2Cc1ccc([N+](=O)[O-])cc1 [Cmpd 88] | – | – | – | 0.031 | – |
| CC(=O)NCCCCCCc1ccc2c(c1)C(=O)N(CCC(=O)O)CC(=O)N2Cc1ccc(Cl)cc1 [Cmpd 105] | – | – | – | 8.5 | – |
| N=C(N)NCCCC#Cc1ccc2c(c1)C(=O)N(CCC(=O)O)CCO2 [Cmpd 145] | – | 4 | – | – | – |
| NCCCCCc1ccc2c(c1)C(=O)N(CCC(=O)O)CCC2 [Cmpd 155] | – | > 100 | – | – | – |
